Key:
Format in all cases: physicochemical
[1] = Solvent residue of the crystal forms determined by gas chromatography
Description: The solvent residue of the crystal form of the compound represented by formula I was determined by gas chromatography, as shown in the table below.

[2] = Crystal form conversion on stirring in ethyl acetate at room temperature; details: 1.0 g in 1.5 mL ethyl acetate, stirred at room temperature, filtered, dried under vacuum
Description: 1.0 g of the crystal form I of the compound represented by formula I was added to 1.5 mL of ethyl acetate, and the mixture was stirred at room temperature, filtered, and dried under vacuum.
1.0 g of the crystal form III of the compound represented by formula I was added to 1.5 mL of ethyl acetate, and the mixture was stirred at room temperature, filtered, and dried under vacuum.

[3] = Dissolution of the raw material in 50% tert-butanol solution when preparing the lyophilized composition; details: 4.36% (w/v) in 50% tert-butanol with 5% mannitol, stirred at room temperature
Description: Tert-butanol and water were mixed at a volume ratio of 1:1 to form a 50% tert-butanol solution. 90% of the target volume of the solution was taken, and 5% (mass volume percentage) of mannitol and 4.36% of the raw material of the compound represented by formula I were added. The mixture was stirred at room temperature for dissolution (dissolution being considered as the absence of significant blocky or flocculent insoluble substances in the solution). The pH was adjusted to 5 with dilute hydrochloric acid or sodium hydroxide, filtration was performed with a […] organic filtration membrane to obtain a clear solution, and the volume of the clear solution was made constant with 50% tert-butanol. The above-mentioned solution was stored at 4° C. before subpackaging. After subpackaging according to the target volume, half of a stopper was pressed, and a freeze-drying procedure was run. After the completion of the procedure, nitrogen was filled, the remaining stopper was pressed, and the freeze-dried compounds were taken out of the box.

| Solvent residue: 1,4-Dioxane [1] [%] | Solvent residue: Ethylene glycol dimethyl ether [1] | Crystal form after slurrying [2] | Solvent residue, comparison of the crystal forms [1] | Solvent residue: Ethyl acetate [1] [%] | Solvent residue: Methyl tert-butyl ether [1] [%] | Solvent residue: Isopropyl ether [1] [%] | SMILES | Dissolution behaviour of the raw material [3] |
| --- | --- | --- | --- | --- | --- | --- | --- | --- |
| 6.3 | Not detected | conversion to the crystal form II |  |  |  |  | C[C@@H](OC[C@@]1(c2ccccc2)CC[C@]2(CCC(=O)N2)CN1C(=O)OCOP(=O)(O)O)c1cc(C(F)(F)F)cc(C(F)(F)F)c1 [Crystal form III] |  |
|  | Not detected |  | lowest solvent residue | 0.0105 | 0.1867 |  | C[C@@H](OC[C@@]1(c2ccccc2)CC[C@]2(CCC(=O)N2)CN1C(=O)OCOP(=O)(O)O)c1cc(C(F)(F)F)cc(C(F)(F)F)c1 [Crystal form II] | dissolved faster, no agglomeration occurred |
|  | Not detected | conversion to the crystal form II |  | 0.0293 |  | 12.0 | C[C@@H](OC[C@@]1(c2ccccc2)CC[C@]2(CCC(=O)N2)CN1C(=O)OCOP(=O)(O)O)c1cc(C(F)(F)F)cc(C(F)(F)F)c1 [Crystal form I] |  |
|  |  |  |  |  |  |  | C[C@@H](OC[C@@]1(c2ccccc2)CC[C@]2(CCC(=O)N2)CN1C(=O)OCOP(=O)(O)O)c1cc(C(F)(F)F)cc(C(F)(F)F)c1 [amorphous form] | agglomerated in a large amount in the solution, resulting in the inability to completely dissolve the raw material |
